Experimental data taken from US9321772B2, “Substituted pyrazolo[3,4-D]pyrimidines and uses thereof” (The Regents of the University of California, priority 2011, dated 2016).
Entries after “also recorded” stand apart in the source; their conditions may differ.

Columns and labels:
EGFR (T790M) = EGFR (T790M) (Homo sapiens, UniProt P00533, T790M); assay: In vitro kinase assay, EGFR gatekeeper mutant; format: biochemical; conditions: 1 μM
Method: FIG. 10F. Selectivity profiles for a subset of kinases. The gatekeeper mutant alleles of RET, ABL1, and EGFR are V804L, T315I and T790M, respectively.
(§1) Using in vitro kinase assays we tested AD57, AD36, and AD58 at 1 μM for activity against approximately one-half of the human kinome (FIG. 1E): 165 Ser/Thr kinases, 91 Tyr kinases, and 10 PI kinases were assayed, totaling 266 kinases (244 distinct kinases plus 22 mutant isoforms; see FIG. 6A-6C, FIG. 7A-7F, and FIG. 8 for measured inhibition values).

B-Raf = B-Raf (Homo sapiens, UniProt P15056); assay: In vitro kinase assay, B-Raf; format: biochemical; conditions: in vitro kinase profile, 1 μM
B-Raf, sequence (P15056 whole entry): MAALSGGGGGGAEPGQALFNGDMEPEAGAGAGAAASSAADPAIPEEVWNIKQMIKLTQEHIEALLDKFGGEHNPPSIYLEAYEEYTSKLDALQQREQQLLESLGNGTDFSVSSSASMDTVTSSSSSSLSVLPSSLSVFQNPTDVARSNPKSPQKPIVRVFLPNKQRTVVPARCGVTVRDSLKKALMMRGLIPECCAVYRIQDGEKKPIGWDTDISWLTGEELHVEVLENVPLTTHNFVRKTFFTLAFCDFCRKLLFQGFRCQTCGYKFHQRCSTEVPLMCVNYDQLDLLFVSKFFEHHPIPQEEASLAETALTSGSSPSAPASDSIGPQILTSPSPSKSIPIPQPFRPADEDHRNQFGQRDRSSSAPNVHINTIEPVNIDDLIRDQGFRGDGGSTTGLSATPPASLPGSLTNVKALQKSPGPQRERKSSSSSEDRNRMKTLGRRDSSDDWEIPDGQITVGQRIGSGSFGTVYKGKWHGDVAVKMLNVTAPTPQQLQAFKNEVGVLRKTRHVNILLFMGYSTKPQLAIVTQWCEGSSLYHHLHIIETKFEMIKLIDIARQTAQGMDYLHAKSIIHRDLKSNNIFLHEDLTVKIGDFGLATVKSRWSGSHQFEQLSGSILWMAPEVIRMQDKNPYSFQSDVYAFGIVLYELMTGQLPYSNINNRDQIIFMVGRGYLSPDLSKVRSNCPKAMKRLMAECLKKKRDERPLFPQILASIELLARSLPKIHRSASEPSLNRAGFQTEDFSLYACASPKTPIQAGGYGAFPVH
Method: as §1
(§2) At least three major pathways are required for dRet^MEN2B-mediated transformation: Ras, Src, and glucose metabolism/PI3K (FIG. 3A; Ref (Read, R. D. et al., Genetics, 2005. 171(3): p. 1057-81)). We utilized in vitro kinase assays to assess compound activity against relevant kinases from each of these pathways, specifically Ret, B-Raf, Src, Tor, and S6K (FIG. 3B).

[1] = tested on: MEN2A (TT) thyroid cancer cells; assay: Immunoblot analysis of drug-treated TT cells; format: cell-based, human; conditions: for phospho-Ret and downstream biomarkers: 1 hour of treatment; for cell death (protein markers of apoptosis): 3 days, 2 μM
Method: (§3) FIG. 19. […] MEN2A (TT) and MEN2B (MZ) thyroid cancer cells were treated with the indicated drugs for 3 days at a final concentration of 2 μM. Cell lystates were immunoblotted for protein markers of apoptosis. Vandetanib (vand.) was included for comparison.
(§4) FIG. 20A-20B. […] FIG. 20A. MEN2B (MZ) and FIG. 20B. MEN2A (TT) thyroid cancer cells were treated with the indicated concentrations of drug. Following 1 hour of treatment, cells were harvested and lysates prepared for immunoblotting to detect the indicated proteins. VD=vandetanib; SF=sorafenib.

[2] = tested on: 266 kinases (approximately one-half of the human kinome); assay: Kinome-wide in vitro kinase profiling; format: biochemical; conditions: 1 μM; among AD36, AD57, AD58
Source text: (§5) FIG. 6A-6C Select Screen Inhibition Data for Tyrosine Kinases. Percent inhibition of kinase activity. Dark gray is greater than 80% inhibition, white is 40-80% inhibition, and light gray is less than 40% inhibition. Hashed boxes indicate no useful data was obtained. Full assay conditions described at www.invitrogen.com/kinaseprofiling.
as §5, with “7A-7F” for “6A-6C”, “Serine/Threonine” for “Tyrosine”
as §5, with “8” for “6A-6C”, “Lipid” for “Tyrosine”
as §1

[3] = tested on: 765>dRet^MEN2B wings (Ras/Erk pathway activity); assay: Adult wing vein pattern assay (765>dRetMEN2B); format: in vivo, Drosophila; conditions: drug fed flies
Source text: The adult Drosophila wing consists of a stereotypical pattern of […] and two cross-veins; increased Ras/Erk pathway activity leads to ectopic veins (e.g., Refs. (Sawamoto, K. et al., Dev Biol, 1996. 178(1): p. 13-22; Guichard, A. et al., Development, 1999. 126(12): p. 2663-76)). Expression of oncogenic dRet throughout the developing wing (765>dRet^MEN2B) led to disruption of the overall adult wing pattern including ectopic wing veins (FIG. 3D). Reducing gene dosage of the erk ortholog rolled (765>dRet^MEN2B erk−/+) suppressed these phenotypes (FIG. 3D), confirming that wing vein formation is dependent on Ras/Erk activity.

Ret kinase domain = target: T1, Ret kinase domain (Homo sapiens, UniProt P07949); assay: In vitro kinase assay, Ret; format: biochemical
T1 construct: determined against a purified form of the Ret kinase domain
T1 sequence (P07949 724-1016 limits assumed): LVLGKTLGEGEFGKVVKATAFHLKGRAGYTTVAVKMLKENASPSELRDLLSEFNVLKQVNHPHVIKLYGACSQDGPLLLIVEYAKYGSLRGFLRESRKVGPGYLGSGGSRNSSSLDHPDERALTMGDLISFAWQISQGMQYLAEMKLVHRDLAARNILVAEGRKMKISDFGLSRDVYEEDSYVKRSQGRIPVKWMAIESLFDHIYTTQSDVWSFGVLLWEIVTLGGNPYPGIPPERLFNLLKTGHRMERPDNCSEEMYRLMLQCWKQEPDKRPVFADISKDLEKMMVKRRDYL
Method: FIG. 1D. […] Half maximal inhibitory concentrations (IC50) were determined against a purified form of the Ret kinase domain.
as §1, §2

[4] = tested on: MEN2B (MZ) thyroid cancer cells; assay: Immunoblot analysis of drug-treated MZ cells; format: cell-based, human; conditions: for phospho-Ret and downstream biomarkers: 1 hour of treatment; for cell death (protein markers of apoptosis): 3 days, 2 μM
Method: as §3, §4

[5] = target: T2, RET fusion protein CCDC6-RET (Homo sapiens, UniProt P07949); assay: RET fusion dephosphorylation in TPC1 whole cell lysates; format: cell-based
T2 construct: endogenous in cells; host or cells: TPC1 thyroid cancer cells; the other entry of the earlier key: CCDC6 (Q16204, Coiled-coil domain-containing protein 6)
T2 sequence (P07949 with tags, fused parts or gaps): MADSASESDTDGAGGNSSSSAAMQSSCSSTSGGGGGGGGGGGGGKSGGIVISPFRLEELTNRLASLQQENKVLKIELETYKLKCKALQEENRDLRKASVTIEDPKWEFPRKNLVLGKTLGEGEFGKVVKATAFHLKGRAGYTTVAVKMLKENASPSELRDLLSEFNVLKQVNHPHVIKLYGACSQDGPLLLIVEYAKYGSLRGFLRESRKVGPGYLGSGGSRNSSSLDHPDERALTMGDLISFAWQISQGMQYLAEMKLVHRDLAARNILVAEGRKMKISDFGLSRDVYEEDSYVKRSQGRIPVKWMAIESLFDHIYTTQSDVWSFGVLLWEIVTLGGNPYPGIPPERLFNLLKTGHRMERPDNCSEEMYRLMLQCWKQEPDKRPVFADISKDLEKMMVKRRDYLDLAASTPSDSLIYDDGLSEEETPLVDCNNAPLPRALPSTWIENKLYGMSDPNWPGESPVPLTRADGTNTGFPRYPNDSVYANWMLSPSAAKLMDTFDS
Method: FIG. 24. Whole cell lysates of TPC1 cells were extracted after treatment with AD80 at indicated concentrations and given time points. TPC1 cells were grown in 6 cm dishes at 70-80% confluence in growth media supplemented with 10% FBS. AD80 treatment leads to dephosphorylation of the RET fusion protein at low nanomolar concentrations <10 nM. The inhibition of RET results in dephosphorylation of downstream signaling (PI3K, MAPK).

EGFR (T790M), sequence (P00533 25-1210 T790M): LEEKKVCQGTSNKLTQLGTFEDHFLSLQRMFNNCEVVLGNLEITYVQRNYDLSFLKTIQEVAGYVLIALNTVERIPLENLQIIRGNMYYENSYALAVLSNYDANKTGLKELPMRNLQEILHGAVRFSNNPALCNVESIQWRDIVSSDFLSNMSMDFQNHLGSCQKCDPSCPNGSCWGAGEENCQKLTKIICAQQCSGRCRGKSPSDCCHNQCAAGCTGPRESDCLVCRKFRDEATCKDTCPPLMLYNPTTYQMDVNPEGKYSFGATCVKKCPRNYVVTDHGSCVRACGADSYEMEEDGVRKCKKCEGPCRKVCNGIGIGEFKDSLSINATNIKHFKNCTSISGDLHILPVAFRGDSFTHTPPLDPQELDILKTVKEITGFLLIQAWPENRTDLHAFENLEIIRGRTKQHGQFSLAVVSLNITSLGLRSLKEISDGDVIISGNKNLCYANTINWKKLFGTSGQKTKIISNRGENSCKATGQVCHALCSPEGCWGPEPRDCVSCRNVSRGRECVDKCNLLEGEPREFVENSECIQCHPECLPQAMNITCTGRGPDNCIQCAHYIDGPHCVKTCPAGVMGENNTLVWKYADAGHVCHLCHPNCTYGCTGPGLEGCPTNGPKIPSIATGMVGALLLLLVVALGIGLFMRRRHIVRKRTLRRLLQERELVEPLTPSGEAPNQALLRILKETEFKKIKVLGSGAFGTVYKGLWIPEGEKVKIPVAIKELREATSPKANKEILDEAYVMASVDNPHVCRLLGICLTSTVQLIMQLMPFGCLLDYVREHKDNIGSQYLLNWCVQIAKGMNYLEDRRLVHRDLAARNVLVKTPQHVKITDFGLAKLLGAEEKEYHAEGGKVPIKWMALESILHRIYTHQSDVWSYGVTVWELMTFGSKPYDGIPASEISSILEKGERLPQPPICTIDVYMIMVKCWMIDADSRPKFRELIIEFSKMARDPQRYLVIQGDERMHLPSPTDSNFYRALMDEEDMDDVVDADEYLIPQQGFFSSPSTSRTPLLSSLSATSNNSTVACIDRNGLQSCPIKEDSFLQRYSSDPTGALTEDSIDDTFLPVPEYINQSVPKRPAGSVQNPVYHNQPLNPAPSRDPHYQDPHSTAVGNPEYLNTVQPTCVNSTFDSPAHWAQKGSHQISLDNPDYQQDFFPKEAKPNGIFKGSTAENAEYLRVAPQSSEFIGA

Compound	inhibition of EGFR (T790M) versus wild type (EGFR (T790M))	B-Raf (Raf) inhibition, in words (B-Raf)	phospho-Ret and downstream biomarkers [1]	cell death (protein markers of apoptosis) [1]	number of kinases inhibited at a cutoff of greater than 80% inhibition [2]	ectopic wing vein / wing pattern phenotype [3]	potency for Ret in vitro (Ret kinase domain; purified Ret kinase domain)	phospho-Ret and downstream biomarkers [4]	cell death (protein markers of apoptosis) [4]	concentration leading to dephosphorylation of the RET fusion protein [5] [nM]	Ret inhibition, in words (Ret kinase domain; in vitro kinase profile, 1 μM)
CC(C)n1nc(-c2ccc(NC(=O)Nc3cccc(C(F)(F)F)c3)cc2)c2c(N)ncnc21 [AD57]	retained or improved on inhibition	potent inhibitor	potent inhibitors	induce cell death	most	suppressed	near equal potency	potent inhibitors	induce cell death	–	–
CC(C)n1nc(-c2ccc(NC(=O)Nc3cc(C(F)(F)F)ccc3F)cc2)c2c(N)ncnc21 [AD80]	–	inhibited	potent downregulation of phospho-Ret; also recorded: potent inhibitors	induce cell death	–	suppressed; also recorded: potently rescued	–	potent downregulation of phospho-Ret; also recorded: potent inhibitors	induce cell death	< 10	inhibited
